Laboratory results from US20200223889A1, “Bicyclic Compounds Capable of Binding to Melanocortin 4 Receptor” (Novo Nordisk A/S, priority 2017, published 2020).
Positions of bridges follow the written chain, without caps; N, C: chain ends. Non-standard residues stand in square brackets, D forms with d. Residues, ends and D or L forms follow the SMILES beside them. Phe(3,4-(OMe)2) = COc1ccc(C[C@H](N)C(=O)O)cc1OC; Phe(4-CN) = N#Cc1ccc(C[C@H](N)C(=O)O)cc1; 1Nal = N[C@@H](Cc1cccc2ccccc12)C(=O)O; 2Nal = N[C@@H](Cc1ccc2ccccc2c1)C(=O)O; Cit = NC(=O)NCCC[C@H](N)C(=O)O; Pen = CC(C)(S)[C@H](N)C(=O)O; Aze = O=C(O)[C@@H]1CCN1

Experiments:
human MC4R [1] = target: T1, human MC4R (Homo sapiens, UniProt P32245); experiment: Functional cAMP assay (CisBio HTRF) in BHK cells expressing human MC4R; type: cell-based; details: for EC50: BHK cells expressing human MC4R, '>' = highest dose used with no response, read-out: MC4R cAMP EC50; for MC1R/MC4R cAMP EC50 ratio: MC1R cAMP EC50 divided by MC4R cAMP EC50
T1 construct: expressed in transfected cells
T1 sequence (P32245 whole entry): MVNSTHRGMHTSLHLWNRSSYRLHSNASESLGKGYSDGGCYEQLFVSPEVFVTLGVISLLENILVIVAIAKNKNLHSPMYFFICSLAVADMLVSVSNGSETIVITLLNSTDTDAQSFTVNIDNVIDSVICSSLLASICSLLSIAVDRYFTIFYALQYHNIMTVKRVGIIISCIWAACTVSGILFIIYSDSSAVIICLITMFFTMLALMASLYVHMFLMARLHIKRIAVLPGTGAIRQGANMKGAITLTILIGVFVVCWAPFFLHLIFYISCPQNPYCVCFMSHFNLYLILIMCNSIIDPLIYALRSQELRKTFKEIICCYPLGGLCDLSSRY
Summary of the method: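 Stably transfected BHK cells expressing human MC1R or MC4R; cAMP quantified by HTRF (cAMP-d2/cryptate) after 30 min compound stimulation at 25 °C in DMEM-based buffer with 1 mM IBMX. Compounds were prepared as 10-fold serial dilutions starting at 2 μM (working solution, 2× final). Readout after 1 h at 25 °C; non-linear regression.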

human MC4R [2] = target: T1, human MC4R; experiment: 125NDP-α-MSH competitive binding to membranes of BHK cells expressing human MC4 receptor (filtration assay); details: human MC4R, BHK cell membranes, 125NDP-α-MSH radioligand; read-out: MC4R binding Ki
Summary of the method: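 Displacement of ^125NDP-α-MSH (apx. […] final) was measured by filtration after 2 h at 25 °C, using diluted membranes of stably transfected BHK cells in pH 7.0 HEPES buffer. Compounds spanned 1 μM to 0.001 nM; binding curves were analysed by non-linear regression.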

| EC50 (human MC4R [1]) | MC1R/MC4R cAMP EC50 ratio (human MC4R [1]) | Ki (human MC4R [2]) | SMILES |
| --- | --- | --- | --- |
| 0.03 nM | 141 | 0.09 nM | C[C@@H]1NC(=O)[C@@H]2CSSC[C@H](NC(=O)[C@H](Cc3cccc4ccccc34)NC(=O)[C@H](CCCNC(=N)N)NC(=O)[C@@H](Cc3ccccc3)NC(=O)[C@H](Cc3c[nH]cn3)NC1=O)C(=O)N[C@@H](C)C(=O)N[C@@H](CCCCN)C(=O)N[C@@H](CCCCN)C(=O)N[C@@H](CCCCN)C(=O)N[C@@H](Cc1c[nH]c3ccccc13)C(=O)N2 [Chem. 64, c[c[Cys-Ala-His-D-Phe-Arg-1-Nal- Cys]-Ala-Lys-Lys-Lys-Trp]] (cyclo([1Nal]CAKKKWCAH[dF]R); disulfide 2-8) |
| 0.42 nM | 26 | 0.47 nM | C[C@@H]1NC(=O)[C@@H]2CSSC[C@H](NC(=O)[C@H](Cc3ccc(C#N)cc3)NC(=O)[C@H](CCCNC(=N)N)NC(=O)[C@@H](Cc3ccccc3)NC(=O)[C@H](Cc3c[nH]cn3)NC1=O)C(=O)N[C@@H](C)C(=O)N[C@@H](CCCCN)C(=O)N[C@@H](CCCCN)C(=O)N[C@@H](CCCCN)C(=O)N[C@@H](Cc1c[nH]c3ccccc13)C(=O)N2 [Chem. 65, c[c[Cys-Ala-His-D-Phe-Arg-4-CN- Phe-Cys]-Ala-Lys-Lys-Lys-Trp]] (cyclo(AH[dF]R[Phe(4-CN)]CAKKKWC); disulfide 6-12) |
| 0.08 nM | 415 | 0.05 nM | C[C@@H]1NC(=O)[C@@H]2CSSC[C@H](NC(=O)[C@H](CCCNC(=N)N)NC(=O)[C@H](CCCCN)NC(=O)[C@H](CCCCN)NC(=O)[C@H](CCCCN)NC1=O)C(=O)N1CCC[C@H]1C(=O)N[C@@H](Cc1c[nH]cn1)C(=O)N[C@H](Cc1ccccc1)C(=O)N[C@@H](Cc1c[nH]cn1)C(=O)N[C@@H](Cc1c[nH]c3ccccc13)C(=O)N2 [Chem. 71, c[c[Cys-Pro-His-D-Phe-His-Trp-Cys]- Ala-Lys-Lys-Lys-Arg]] (cyclo(AKKKRCPH[dF]HWC); disulfide 6-12) |
| 0.03 nM | 195 | 0.03 nM | C[C@@H]1NC(=O)[C@@H]2CSSC[C@H](NC(=O)[C@H](CCCNC(=N)N)NC(=O)[C@H](CCCCN)NC(=O)[C@H](CCCCN)NC(=O)[C@H](CCCCN)NC1=O)C(=O)N1CCC[C@H]1C(=O)N[C@@H](Cc1c[nH]cn1)C(=O)N[C@H](Cc1ccccc1)C(=O)N[C@@H](CCCNC(N)=O)C(=O)N[C@@H](Cc1c[nH]c3ccccc13)C(=O)N2 [Chem. 72, c[c[Cys-Pro-His-D-Phe-Cit-Trp-Cys]- Ala-Lys-Lys-Lys-Arg]] (cyclo(AKKKRCPH[dF][Cit]WC); disulfide 6-12) |
| 0.16 nM | 136 | 0.09 nM | C[C@@H]1NC(=O)[C@@H]2CSSC[C@H](NC(=O)[C@H](Cc3c[nH]c4ccccc34)NC(=O)[C@H](CCCCN)NC(=O)[C@H](CCCCN)NC(=O)[C@H](CCCCN)NC1=O)C(=O)N[C@@H](CCCCN)C(=O)N[C@@H](Cc1c[nH]cn1)C(=O)N[C@H](Cc1ccccc1)C(=O)N[C@@H](Cc1c[nH]cn1)C(=O)N[C@@H](Cc1c[nH]c3ccccc13)C(=O)N2 [Chem. 76, c[c[Cys-Lys-His-D-Phe-His-Trp-Cys]- Ala-Lys-Lys-Lys-Trp]] (cyclo(AKKKWCKH[dF]HWC); disulfide 6-12) |
| 0.04 nM | 95 | 0.02 nM | C[C@@H]1NC(=O)[C@@H]2CSSC[C@H](NC(=O)[C@H](CCCNC(=N)N)NC(=O)[C@H](CCCCN)NC(=O)[C@H](CCCCN)NC(=O)[C@H](CCCCN)NC1=O)C(=O)N[C@@H](CCCCN)C(=O)N[C@@H](Cc1c[nH]cn1)C(=O)N[C@H](Cc1ccccc1)C(=O)N[C@@H](Cc1c[nH]cn1)C(=O)N[C@@H](Cc1c[nH]c3ccccc13)C(=O)N2 [Chem. 78, c[c[Cys-Lys-His-D-Phe-His-Trp-Cys]- Ala-Lys-Lys-Lys-Arg]] (cyclo(AKKKRCKH[dF]HWC); disulfide 6-12) |
| 0.02 nM | 58 | 0.03 nM | C[C@@H]1NC(=O)[C@@H]2CSSC[C@H](NC(=O)[C@H](Cc3ccc4ccccc4c3)NC(=O)[C@H](CCCNC(=N)N)NC(=O)[C@@H](Cc3ccccc3)NC(=O)[C@H](Cc3c[nH]cn3)NC1=O)C(=O)N[C@@H](C)C(=O)N[C@@H](CCCCN)C(=O)N[C@@H](CCCCN)C(=O)N[C@@H](CCCCN)C(=O)N[C@@H](Cc1c[nH]c3ccccc13)C(=O)N2 [Chem. 79, c[c[Cys-Ala-His-D-Phe-Arg-2-Nal- Cys]-Ala-Lys-Lys-Lys-Trp]] (cyclo([2Nal]CAKKKWCAH[dF]R); disulfide 2-8) |
| – | 178 | 0.07 nM | C[C@@H]1NC(=O)[C@@H]2CSSC[C@H](NC(=O)[C@H](Cc3c[nH]c4ccccc34)NC(=O)[C@H](CCCCN)NC(=O)[C@H](CCCCN)NC(=O)[C@H](CCCCN)NC1=O)C(=O)N1CC[C@H]1C(=O)N[C@@H](Cc1c[nH]cn1)C(=O)N[C@H](Cc1ccccc1)C(=O)N[C@@H](Cc1c[nH]cn1)C(=O)N[C@@H](Cc1c[nH]c3ccccc13)C(=O)N2 [Chem. 82, c[c[Cys-AZE-His-D-Phe-His-Trp-Cys]- Ala-Lys-Lys-Lys-Trp]] (cyclo(AKKKWC[Aze]H[dF]HWC); disulfide 6-12) |
| 0.59 nM | 74 | 0.19 nM | C[C@@H]1NC(=O)[C@@H]2CSSC[C@H](NC(=O)[C@H](Cc3c[nH]c4ccccc34)NC(=O)[C@H](CCCCN)NC(=O)[C@H](CCCCN)NC(=O)[C@H](CCCCN)NC1=O)C(=O)N[C@H](CCCCN)C(=O)N[C@@H](Cc1c[nH]cn1)C(=O)N[C@H](Cc1ccccc1)C(=O)N[C@@H](Cc1c[nH]cn1)C(=O)N[C@@H](Cc1c[nH]c3ccccc13)C(=O)N2 [Chem. 84, c[c[Cys-D-Lys-His-D-Phe-His-Trp- Cys]-Ala-Lys-Lys-Lys-Trp]] (cyclo(AKKKWC[dK]H[dF]HWC); disulfide 6-12) |
| 0.13 nM | 362 | 0.04 nM | C[C@@H]1NC(=O)[C@@H]2CSSC(C)(C)[C@H](NC(=O)[C@H](CCCNC(=N)N)NC(=O)[C@H](CCCCN)NC(=O)[C@H](CCCCN)NC(=O)[C@H](CCCCN)NC1=O)C(=O)N1CCC[C@H]1C(=O)N[C@@H](Cc1c[nH]cn1)C(=O)N[C@H](Cc1ccccc1)C(=O)N[C@@H](Cc1c[nH]cn1)C(=O)N[C@@H](Cc1c[nH]c3ccccc13)C(=O)N2 [Chem. 92, c[c[Pen-Pro-His-D-Phe-His-Trp-Cys]- Ala-Lys-Lys-Lys-Arg]] (cyclo(AKKKR[Pen]PH[dF]HWC); disulfide 6-12) |
| 0.04 nM | 456 | 0.03 nM | C[C@@H]1NC(=O)[C@H]2NC(=O)[C@H](Cc3c[nH]c4ccccc34)NC(=O)[C@H](Cc3c[nH]cn3)NC(=O)[C@@H](Cc3ccccc3)NC(=O)[C@H](Cc3c[nH]cn3)NC(=O)[C@@H]3CCCN3C(=O)[C@H](CSSC2(C)C)NC(=O)[C@H](CCCNC(=N)N)NC(=O)[C@H](CCCCN)NC(=O)[C@H](CCCCN)NC(=O)[C@H](CCCCN)NC1=O [Chem. 93, c[c[Cys-Pro-His-D-Phe-His-Trp-Pen]- Ala-Lys-Lys-Lys-Arg]] (cyclo(AKKKRCPH[dF]HW[Pen]); disulfide 6-12) |
| – | 26 | 0.25 nM | COc1ccc(C[C@@H]2NC(=O)[C@H](CCCNC(=N)N)NC(=O)[C@@H](Cc3ccccc3)NC(=O)[C@H](Cc3c[nH]cn3)NC(=O)[C@@H]3CCCN3C(=O)[C@@H]3CSSC[C@H](NC2=O)C(=O)N[C@@H](C)C(=O)N[C@@H](CCCCN)C(=O)N[C@@H](CCCCN)C(=O)N[C@@H](CCCCN)C(=O)N[C@@H](CCCNC(=N)N)C(=O)N3)cc1OC [Chem. 94, c[c[Cys-Pro-His-D-Phe-Arg-3,4- DiMeO-Phe-Cys]-Ala-Lys-Lys-Lys- Arg]] (cyclo(AKKKRCPH[dF]R[Phe(3,4-(OMe)2)]C); disulfide 6-12) |

| SMILES | EC50 (human MC4R [1]) | MC1R/MC4R cAMP EC50 ratio (human MC4R [1]) | Ki (human MC4R [2]) |
| --- | --- | --- | --- |
| NCCCC[C@@H]1NC(=O)[C@H](CCCCN)NC(=O)[C@@H]2CSSC[C@H](NC(=O)[C@H](Cc3c[nH]c4ccccc34)NC(=O)[C@H](CCCCN)NC(=O)[C@H](CCCCN)NC1=O)C(=O)N1CCC[C@H]1C(=O)N[C@@H](Cc1c[nH]cn1)C(=O)N[C@H](Cc1ccccc1)C(=O)N[C@@H](Cc1c[nH]cn1)C(=O)N[C@@H](Cc1c[nH]c3ccccc13)C(=O)N2 [Chem. 75, c[c[Cys-Pro-His-D-Phe-His-Trp-Cys]- Lys-Lys-Lys-Lys-Trp]] (cyclo(CKKKKWCPH[dF]HW); disulfide 1-7) | 0.44 nM | 155 | 0.11 nM |
| NCCCC[C@@H]1NC(=O)[C@H](CCCCN)NC(=O)[C@H](CCCCN)NC(=O)[C@@H]2CSSC[C@H](NC(=O)[C@H](Cc3c[nH]c4ccccc34)NC(=O)[C@H](CCCCN)NC1=O)C(=O)N[C@@H](CCCCN)C(=O)N[C@@H](Cc1c[nH]cn1)C(=O)N[C@H](Cc1ccccc1)C(=O)N[C@@H](Cc1c[nH]cn1)C(=O)N[C@@H](Cc1c[nH]c3ccccc13)C(=O)N2 [Chem. 77, c[c[Cys-Lys-His-D-Phe-His-Trp-Cys]- Lys-Lys-Lys-Lys-Trp]] (cyclo(CKH[dF]HWCKKKKW); disulfide 1-7) | – | 108 | 0.72 nM |
| NCCCC[C@H]1NC(=O)[C@@H]2CSSC[C@H](NC(=O)[C@H](Cc3c[nH]c4ccccc34)NC(=O)[C@H](Cc3c[nH]cn3)NC(=O)[C@@H](Cc3ccccc3)NC(=O)[C@H](Cc3c[nH]cn3)NC1=O)C(=O)N[C@H](CCCCN)C(=O)N[C@@H](Cc1c[nH]cn1)C(=O)N[C@H](Cc1ccccc1)C(=O)N[C@@H](Cc1c[nH]cn1)C(=O)N[C@@H](Cc1c[nH]c3ccccc13)C(=O)N2 [Chem. 86, c[c[Cys-D-Lys-His-D-Phe-His-Trp- Cys]-D-Lys-His-D-Phe-His-Trp]] (cyclo(C[dK]H[dF]HWC[dK]H[dF]HW); disulfide 1-7) | 14.5 nM | 10 | 9.6 nM |
